Test results: US12286442B2, “Methods and materials for increasing transcription factor eb polypeptide levels” (University of Pittsburgh—Of the Commonwealth System of …, priority 2019, dated 2025)

Assays:
[1] = test system: TFEB; assay: High content screen measuring TFEB nuclear accumulation (TFEB nuclear/cytosol ratio) in BEAS-2B cells stably expressing TFEB-EGFP; format: cell-based, human; settings: 18 hours incubation
Description: FIG. 3. High content screen assay (384 well) measuring TFEB nuclear accumulation. Approximately 2500 primary and immortalized human bronchial epithelial cells (BEAS-2B) stably expressing TFEB-EGFP in 25 μL of HITEs media with 10% FBS were dispensed into 384 well plate (Black with glass bottom) and incubated for 8 hours. Compound serial dilution (DMEM low glucose media with 2% FBS, 25 μL volume) were prepared using a robotic liquid hander. Compound solutions were then added to the cell plate and incubated for 18 hours. Cells were then fixed with 4% PFA followed by DAPI staining. TFEB localization was imaged on the GFP channel along with the DAPI signal using a Cytation 5 high content imager. Images were processed through Biotek Gen5 software; specifically, the DAPI signal was used as the primary mask to quantify the nuclear TFEB-GFP signal. The cytosolic TFEB-GFP signal was quantified through expanding the primary mask. The TFEB nuclear/cytosol ratios were calculated from nuclear TFEB-GFP signal/cytosol TFEB-GFP signal, which determined the compound efficacy. […] Compound activities (μM) were determined by the minimal compound concentration needed to increase TFEB nuclear/cytosol ratio by 25%. Activity: “−” equals >25 μM; “+” equals between 25 μM and >10 μM; “++” equals between ≤10 μM and >1 μM; and “+++” equals […]. N=4.
(§1) Approximately 2300 primary and immortalized human bronchial epithelial cells (BEAS-2B) stably expressing TFEB-EGFP in 25 μL of HITEs media with 10% FBS were dispensed into 384 well plate (Black with glass bottom) and incubated for 8 hours. Compound serial dilution (DMEM low glucose media with 2% FBS, 25 μL volume) were prepared using a robotic liquid hander. Compound solution were then added to the cell plate and incubated for 18 hours. Cells were then fixed with 4% PFA followed by DAPI staining. TFEB localization was imaged on the GFP channel along with the DAPI signal using a Cytation 5 high content imager. Images were processed through Biotek Gen5 software. Specifically, the DAPI signal was used as the primary mask to quantify the nuclear TFEB-GFP signal. Cytosolic TFEB-GFP signal was quantified through expanding the primary mask. The TFEB nuclear/cytosol ratios were calculated from nuclear TFEB-GFP signal/cytosol TFEB-GFP signal, which determined the compound efficacies.
Compounds efficacies (μM) were determined by the minimal compound concentration needed to increase TFEB nuclear/cytosol ratio by 25%. Activity: “+” equals >25 μM; “++” equals between ≤25 μM and >1 μM; and “+++” equals ≤1 μM.
A high-content imaging screen was conducted using Beas2B cells that stably express GFP-TFEB.

[2] = test system: BEAS-2B cells; assay: Toxicity: compound concentration needed to induce greater than 50 percent of cell loss; format: cell-based, human; settings: 18 hours incubation
Description: as §1
Toxicity was determined by determining the compound concentration needed to induce greater than 50 percent of cell loss. For toxicity, cell loss of greater than 50 percent at a concentration that equals or is greater than 25 μM was represented as cell loss of greater than 50 percent at a concentration less than 25 μM and greater than 1 μM was represented as and cell loss of greater than 50 percent at a concentration that equals or is less than 1 μM was represented as “+++.” The assay results for compounds 1-202, 214-248, 332, 333, and 352-402 are shown in Table A.

| Compound | efficacy (minimal compound concentration needed to increase TFEB nuclear/cytosol ratio by 25%) [1] | toxicity (compound concentration needed to induce greater than 50 percent of cell loss) [2] |
| --- | --- | --- |
| Cc1cc(Br)cc(Nc2nc(-c3ccncc3)nc3ccccc23)c1 [Compound 55] | + (“+” equals >25 μM) | + (cell loss of greater than 50 percent at a concentration that equals or is greater than 25 μM was represented as) |
| Nc1ccc(Nc2nc(-c3ccncc3)nc3ccccc23)cc1 [Compound 56] | ++ (“++” equals between ≤25 μM and >1 μM) | + (cell loss of greater than 50 percent at a concentration that equals or is greater than 25 μM was represented as) |
| c1cnc2ccc(Nc3nc(-c4ccncc4)nc4ccccc34)cc2c1 [Compound 57] | +++ (“+++” equals ≤1 μM) | + (cell loss of greater than 50 percent at a concentration that equals or is greater than 25 μM was represented as) |
| Cc1cc(Nc2nc(-c3ccncc3)nc3ccccc23)ccc1N [Compound 58] | ++ (“++” equals between ≤25 μM and >1 μM) | + (cell loss of greater than 50 percent at a concentration that equals or is greater than 25 μM was represented as) |
| CNc1ccc(Nc2nc(-c3ccncc3)nc3ccccc23)cc1 [Compound 59] | ++ (“++” equals between ≤25 μM and >1 μM) | + (cell loss of greater than 50 percent at a concentration that equals or is greater than 25 μM was represented as) |
| NC1CCC(Nc2nc(-c3ccncc3)nc3ccccc23)CC1 (centres unmarked) [Compound 60] | + (“+” equals >25 μM) | + (cell loss of greater than 50 percent at a concentration that equals or is greater than 25 μM was represented as) |
| Cc1c(Nc2nc(-c3ccncc3)nc3ccccc23)ccc2[nH]ccc12 [Compound 61] | +++ (“+++” equals ≤1 μM) | ++ (cell loss of greater than 50 percent at a concentration less than 25 μM and greater than 1 μM was represented as) |
| Cc1cc2cc(Nc3nc(-c4ccncc4)nc4ccccc34)ccc2[nH]1 [Compound 62] | +++ (“+++” equals ≤1 μM) | +++ (cell loss of greater than 50 percent at a concentration that equals or is less than 1 μM was represented as “+++.”) |
| Oc1ccc(-c2nc(Nc3ccc4[nH]ccc4c3)c3ccccc3n2)cc1 [Compound 63] | + (“+” equals >25 μM) | + (cell loss of greater than 50 percent at a concentration that equals or is greater than 25 μM was represented as) |
| Oc1ccc(-c2nc(Nc3ccc4[nH]ncc4c3)c3ccccc3n2)cc1 [Compound 64] | ++ (“++” equals between ≤25 μM and >1 μM) | ++ (cell loss of greater than 50 percent at a concentration less than 25 μM and greater than 1 μM was represented as) |
| Oc1ccc(-c2nc(Nc3cccc(F)c3)c3ccccc3n2)cc1 [Compound 65] | + (“+” equals >25 μM) | + (cell loss of greater than 50 percent at a concentration that equals or is greater than 25 μM was represented as) |
| [O-][n+]1ccc(-c2nc(Nc3ccc4[nH]ccc4c3)c3ccccc3n2)cc1 [Compound 66] | + (“+” equals >25 μM) | + (cell loss of greater than 50 percent at a concentration that equals or is greater than 25 μM was represented as) |
| c1ccc2c(Nc3ccc4[nH]ccc4c3)cc(-c3ccncc3)nc2c1 [Compound 67] | + (“+” equals >25 μM) | + (cell loss of greater than 50 percent at a concentration that equals or is greater than 25 μM was represented as) |
| c1ccc2c(Nc3ccc4[nH]ncc4c3)cc(-c3ccncc3)nc2c1 [Compound 68] | + (“+” equals >25 μM) | + (cell loss of greater than 50 percent at a concentration that equals or is greater than 25 μM was represented as) |
| Fc1cccc(Nc2cc(-c3ccncc3)nc3ccccc23)c1 [Compound 69] | + (“+” equals >25 μM) | + (cell loss of greater than 50 percent at a concentration that equals or is greater than 25 μM was represented as) |
| CC(=O)n1ccc2cc(Nc3nc(-c4ccncc4)nc4ccccc34)ccc21 [Compound 70] | +++ (“+++” equals ≤1 μM) | + (cell loss of greater than 50 percent at a concentration that equals or is greater than 25 μM was represented as) |
| Fc1cc(Nc2nc(-c3ccncc3)nc3ccccc23)cc2cc[nH]c12 [Compound 71] | +++ (“+++” equals ≤1 μM) | + (cell loss of greater than 50 percent at a concentration that equals or is greater than 25 μM was represented as) |
| CCN(c1ccc2[nH]ccc2c1)c1nc(-c2ccncc2)nc2ccccc12 [Compound 72] | +++ (“+++” equals ≤1 μM) | +++ (cell loss of greater than 50 percent at a concentration that equals or is less than 1 μM was represented as “+++.”) |
| c1ccc2c(Nc3ccc4[nH]c5c(c4c3)CCCC5)nc(-c3ccncc3)nc2c1 [Compound 73] | +++ (“+++” equals ≤1 μM) | +++ (cell loss of greater than 50 percent at a concentration that equals or is less than 1 μM was represented as “+++.”) |
| CC(C)(C)c1cc2cc(Nc3nc(-c4ccncc4)nc4ccccc34)ccc2[nH]1 [Compound 74] | +++ (“+++” equals ≤1 μM) | ++ (cell loss of greater than 50 percent at a concentration less than 25 μM and greater than 1 μM was represented as) |
| C1=C(c2nc(Nc3ccc4[nH]ncc4c3)c3ccccc3n2)CCNC1 [Compound 75] | + (“+” equals >25 μM) | + (cell loss of greater than 50 percent at a concentration that equals or is greater than 25 μM was represented as) |
| c1ccc2c(Nc3ccc4[nH]ncc4c3)nc(C3CCNCC3)nc2c1 [Compound 76] | + (“+” equals >25 μM) | + (cell loss of greater than 50 percent at a concentration that equals or is greater than 25 μM was represented as) |
| c1ccc2c(Nc3ccc4[nH]ncc4c3)nc(-c3cncs3)nc2c1 [Compound 77] | +++ (“+++” equals ≤1 μM) | + (cell loss of greater than 50 percent at a concentration that equals or is greater than 25 μM was represented as) |
| c1ccc2c(Nc3ccc4[nH]ccc4c3)nc(-c3cncs3)nc2c1 [Compound 78] | ++ (“++” equals between ≤25 μM and >1 μM) | + (cell loss of greater than 50 percent at a concentration that equals or is greater than 25 μM was represented as) |
| Fc1cccc(Nc2nc(-c3cncs3)nc3ccccc23)c1 [Compound 79] | + (“+” equals >25 μM) | + (cell loss of greater than 50 percent at a concentration that equals or is greater than 25 μM was represented as) |
